Measurements taken from paper doi:10.64898/2025.12.11.693838v1 (biorxiv, 2025).

Biological target: T1, SaTpx (WT-SaTpx) (Staphylococcus aureus, UniProt Q2FXL3)
T1 sequence (Q2FXL3 1-164): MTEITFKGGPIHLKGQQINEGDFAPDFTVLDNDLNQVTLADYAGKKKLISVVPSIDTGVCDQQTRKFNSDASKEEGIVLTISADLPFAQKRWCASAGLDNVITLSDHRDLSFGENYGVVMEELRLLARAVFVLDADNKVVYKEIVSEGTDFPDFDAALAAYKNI
Assay: coupled SaTrx1/SaTR NADPH oxidation assay at […] nm, Michaelis-Menten fit
Format: biochemical
Settings: apparent; NADPH 0.2 mM; 20 mM Tris, 50 mM NaCl, pH 8.0

CC(C)(OO)c1ccccc1 [cumene hydroperoxide]
Km: 8.5 µM
